Reference: PMC7819857, “Identification of Inhibitors of Integrin Cytoplasmic Domain Interactions With Syk” (Frontiers in Immunology, 2021)

Target: T1, wild-type full-length Syk : integrin β3 cytoplasmic domain (Homo sapiens, UniProt P43405)
T1 construct: endogenous in cells; host or cells: THP-1 whole cell lysate
Test: Peptide affinity pull-down of Syk from THP-1 whole cell lysate on β3 peptide beads
Assay type: binding
Conditions: bβ3(fl) on neutravidin agarose beads, western blot
Protocol: THP-1 cells were washed in PIPES buffer (10 mM PIPES, 50 mM NaCl pH 6.8) and resuspended at 10 × 10^6 cells/ml in PIPES lysis buffer [PIPES buffer containing 1% Triton X-100, 1 mM EDTA, 1 mM Na3VO4, 50 mM NaF, 150 mM sucrose, protease inhibitors (cOmplete, Mini, EDTA-free Protease Inhibitor Cocktail, Roche, cat#11836170001)] and 0.1 mM N-ethylmaleimide. The cells were incubated overnight in lysis buffer at 4°C with end-over-end rotation. Lysates were then passed through a 21-gauge needle and centrifuged at 13,000 × g for 30 min at 4°C. Lysate protein concentrations were determined by using Quick Start Bradford Dye reagent (BioRad cat#5000202). […] Eluted samples were run on SDS-PAGE (4–20%, BioRad, cat# 4561093) and immunoblotted for Syk using anti-Syk antibody at 1:1,000 (4D10; SantaCruz) dilution followed by GAM-HRP at 1:5,000 and detected with SuperSignal West Pico (Thermo Scientific, cat# 34580). Western blots were scanned, and band intensity was measured using ImageJ ([31]) to compare and determine the effect of the drug on Syk/β3 binding. […]
Figure 3 Dose-response curves in primary and orthogonal screens. […] Data are expressed as mean fluorescence (Fl520) ± range from duplicates, and one representative experiment of “n” performed is shown. […] Data are expressed as mean abs450 ± SEM from triplicate determinations, and one of three representative experiments is shown. […]

- inhibition of wild-type Syk interaction with integrin β3 cytoplasmic domains: inhibited
SMILES: CC(C)(O/N=C(\C(=O)N[C@@H]1C(=O)N2C(C(=O)[O-])=C(C[n+]3ccccc3)CS[C@H]12)c1csc(N)n1)C(=O)O [ceftazidime]
